From the supplement of paper PMC8671470

Key:
Conditions in all cases: 72 h
NOMO-1 [1] = test system: NOMO-1
Procedure, shortened: (§1)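 Each of fifteen myeloid leukaemia cell lines was seeded in RPMI 1640 at a density titrated to its linear growth range. The cells were incubated for 72 h at 37 °C and 5% CO2 with compounds at five tenfold doses from 1 to 10,000 nM, in duplicate. After ATP luminescence was normalised to vehicle and to a positive control at 10 µM, four-parameter log-logistic curves were fitted. These curves gave the IC50.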

K-562 [2] = test system: K-562
Procedure, shortened: as §1

MV4-11 [3] = test system: MV4-11
Procedure, shortened: as §1

KU-812 [4] = test system: KU-812
Procedure, shortened: as §1

Mono-Mac-6 [5] = test system: Mono-Mac-6
Procedure, shortened: as §1

KG-1 = test: cell viability (% survival relative to DMSO control, bortezomib = 0%); higher = less cytotoxic
Procedure, shortened: (§2)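 After 72 h at 37 °C with 5% CO2, cell viability in 384-well plates was measured by CellTiter-Glo luminescence. The plates held compounds pre-printed at 1, 10, 100, 1000 or 10000 nM in duplicate, and cells from 10 AML and 5 CML lines seeded at densities titrated to linear growth. Percent survival is the duplicate mean, normalised to vehicle as 100% and a 10 µM positive control as 0%.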

NOMO-1 [6] = test: as above
Procedure, shortened: as §2

BV-173 = test: as above
Procedure, shortened: as §2

MOLM-13 = test: as above
Procedure, shortened: as §2

K-562 [7] = test: as above
Procedure, shortened: as §2

KCL-22 = test: as above
Procedure, shortened: as §2

ML-2 = test: as above
Procedure, shortened: as §2

LAMA-84 = test: as above
Procedure, shortened: as §2

MV4-11 [8] = test: as above
Procedure, shortened: as §2

SHI-1 = test: as above
Procedure, shortened: as §2

KU-812 [9] = test: as above
Procedure, shortened: as §2

Mono-Mac-6 [10] = test: as above
Procedure, shortened: as §2

HL-60 [11] = test: as above
Procedure, shortened: as §2

HEL = test: as above
Procedure, shortened: as §2

THP-1 = test: as above
Procedure, shortened: as §2

HL-60 [12] = test: cell viability (% survival relative to DMSO control); higher = less cytotoxic
Procedure, shortened: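 In 384-well plates, the full library was rescreened in duplicate on HL-60 cells in RPMI 1640 with 10% FBS, at 1–10,000 nM in five tenfold concentrations, for 72 h at 37 °C, 5% CO2. Each run also held DMSO or 100 nM of one of three metabolic inhibitors. Viability was measured by CellTiter-Glo and normalised to DMSO wells and to wells with proteasome inhibitor, present at 10 μM. Any area under the curve comes from four-parameter log-logistic fitting with drc and PharmacoGx.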

N[C@@H](CC(=O)N1CCn2c(nnc2C(F)(F)F)C1)Cc1cc(F)c(F)cc1F [Sitagliptin]
Conditions	IC50 (cell viability) [µM]
K-562 [2]	> 10
KU-812 [4]	> 10
MV4-11 [3]	> 10
Mono-Mac-6 [5]	> 10
NOMO-1 [1]	> 10

cell viability [%]
Conditions	1 nM	10 nM	100 nM	1000 nM	10000 nM
BV-173	89.5	103	99.9	93.4	102
HEL	90.7	95.3	111	95.4	103
HL-60 [11]	101	95.5	97.1	91.3	95.2
K-562 [7]	93.8	96.9	103	99.7	113
KCL-22	94	114	106	94.4	92.8
KG-1	90.9	104	108	95.2	103
KU-812 [9]	94.6	98.9	91.9	95.5	102
LAMA-84	93.1	99.2	94	102	93.8
ML-2	90	102	99.3	97.4	97.9
MOLM-13	95.5	110	92.5	84.3	95.4
MV4-11 [8]	89.2	102	99.3	92.2	101
Mono-Mac-6 [10]	92.5	83.8	96.1	85.6	100
NOMO-1 [6]	99.8	96.9	91.3	101	100
SHI-1	95.2	104	105	96.8	97.4
THP-1	97.8	99.7	106	99	97.6

cell viability [%], HL-60 [12]
Conditions	0.001 µM	0.01 µM	0.1 µM	1 µM	10 µM
co-treatment: AZD3965 100 nM	103	108	103	103	109
co-treatment: DMSO vehicle	97.61	102	100	101	101
co-treatment: GSK2194069 100 nM	97.9	104	99.4	107	97.9
co-treatment: pictilisib 100 nM	82.9	104	99.5	114	94.2
